Reference: patent US12310975B2, “Modulators of BCL6 proteolysis and associated methods of use” (Arvinas Operations, Inc., priority 2019, dated 2025)

Molecular target: BCL6 (Homo sapiens (Human), UniProt P41182)
Test: Immunofluorescence high content imaging of BCL6 degradation in T47D cells
Assay type: cell-based
Conditions: class symbols A-D, read-out: EC50 (nM)*
In short: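 T47D, 3 d compound exposure, 11-pt 3-fold series, top 0.1 or 1 μM final. Fix 4% PFA, Triton permeabilize, anti-BCL6 primary overnight 4 °C, Alexa-488 secondary. High-content imaging 10×, 4 fields/well, top-hat smoothing.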

Row | DC50 [nM] | SMILES
1 | 10 to 50 | CNC(=O)COc1cc2cc(Nc3nc(N4CCC(c5cn(CCOCCOc6ccc7c(c6)C(=O)N(C6CCC(=O)NC6=O)C7=O)nn5)CC4)ncc3Cl)ccc2n(C)c1=O (stereo not shown) [compound 107, 2-((6-((5-chloro-2-(4-(1-(2-(2-((2-(2,6-dioxopiperidin-3-yl)-1,3-dioxoisoindolin-5-yl)oxy)ethoxy)ethyl)-1H-1,2,3-triazol-4-yl)piperidin-1-yl)pyrimidin-4-yl)amino)-1-methyl-2-oxo-1,2-dihydroquinolin-3-yl)oxy)-N-methylacetamide]
2 | 50 to 100 | CNC(=O)COc1cc2cc(Nc3nc(N4CCC(c5cn(CCOCCOCCOCCOCC(=O)N[C@H](C(=O)N6C[C@H](O)C[C@H]6C(=O)N[C@@H](C)c6ccc(-c7scnc7C)cc6)C(C)(C)C)nn5)CC4)ncc3Cl)ccc2n(C)c1=O [compound 108, (2S,4R)-1-((S)-2-(tert-butyl)-17-(4-(1-(5-chloro-4-((1-methyl-3-(2-(methylamino)-2-oxoethoxy)-2-oxo-1,2-dihydroquinolin-6-yl)amino)pyrimidin-2-yl)piperidin-4-yl)-1H-1,2,3-triazol-1-yl)-4-oxo-6,9,12,15-tetraoxa-3-azaheptadecanoyl)-4-hydroxy-N-((S)-1-(4-(4-methylthiazol-5-yl)phenyl)ethyl)pyrrolidine-2-carboxamide]
3 | 50 to 100 | CNC(=O)COc1cc2cc(Nc3nc(N4CCC(c5cn(CCOCC(=O)N[C@H](C(=O)N6C[C@H](O)C[C@H]6C(=O)N[C@@H](C)c6ccc(-c7scnc7C)cc6)C(C)(C)C)nn5)CC4)ncc3Cl)ccc2n(C)c1=O [compound 114, (2S,4R)-1-((S)-2-(2-(2-(4-(1-(5-chloro-4-((1-methyl-3-(2-(methylamino)-2-oxoethoxy)-2-oxo-1,2-dihydroquinolin-6-yl)amino)pyrimidin-2-yl)piperidin-4-yl)-1H-1,2,3-triazol-1-yl)ethoxy)acetamido)-3,3-dimethylbutanoyl)-4-hydroxy-N-((S)-1-(4-(4-methylthiazol-5-yl)phenyl)ethyl)pyrrolidine-2-carboxamide]
4 | 10 to 50 | CNC(=O)COc1cc2cc(Nc3nc(N4CCC(c5cn(CCOCCOCC(=O)N[C@H](C(=O)N6C[C@H](O)C[C@H]6C(=O)N[C@@H](C)c6ccc(-c7scnc7C)cc6)C(C)(C)C)nn5)CC4)ncc3Cl)ccc2n(C)c1=O [compound 115, (2S,4R)-1-((S)-2-(2-(2-(2-(4-(1-(5-chloro-4-((1-methyl-3-(2-(methylamino)-2-oxoethoxy)-2-oxo-1,2-dihydroquinolin-6-yl)amino)pyrimidin-2-yl)piperidin-4-yl)-1H-1,2,3-triazol-1-yl)ethoxy)ethoxy)acetamido)-3,3-dimethylbutanoyl)-4-hydroxy-N-((S)-1-(4-(4-methylthiazol-5-yl)phenyl)ethyl)pyrrolidine-2-carboxamide]
5 | 10 to 50 | CNC(=O)COc1cc2cc(Nc3nc(N4CCC(c5cn(CCOCCOCCOCC(=O)N[C@H](C(=O)N6C[C@H](O)C[C@H]6C(=O)N[C@@H](C)c6ccc(-c7scnc7C)cc6)C(C)(C)C)nn5)CC4)ncc3Cl)ccc2n(C)c1=O [compound 116, (2S,4R)-1-((S)-2-(tert-butyl)-14-(4-(1-(5-chloro-4-((1-methyl-3-(2-(methylamino)-2-oxoethoxy)-2-oxo-1,2-dihydroquinolin-6-yl)amino)pyrimidin-2-yl)piperidin-4-yl)-1H-1,2,3-triazol-1-yl)-4-oxo-6,9,12-trioxa-3-azatetradecanoyl)-4-hydroxy-N-((S)-1-(4-(4-methylthiazol-5-yl)phenyl)ethyl) pyrrolidine-2-carboxamide]
6 | 10 to 50 | CNC(=O)COc1cc2cc(Nc3nc(N4CCC(c5cn(CCOCCOCCOCCOCCOCC(=O)N[C@H](C(=O)N6C[C@H](O)C[C@H]6C(=O)N[C@@H](C)c6ccc(-c7scnc7C)cc6)C(C)(C)C)nn5)CC4)ncc3Cl)ccc2n(C)c1=O [compound 117, (2S,4R)-1-((S)-2-(tert-butyl)-20-(4-(1-(5-chloro-4-((1-methyl-3-(2-(methylamino)-2-oxoethoxy)-2-oxo-1,2-dihydroquinolin-6-yl)amino)pyrimidin-2-yl)piperidin-4-yl)-1H-1,2,3-triazol-1-yl)-4-oxo-6,9,12,15,18-pentaoxa-3-azaicosanoyl)-4-hydroxy-N-((S)-1-(4-(4-methylthiazol-5-yl)phenyl)ethyl)pyrrolidine-2-carboxamide]
7 | 50 to 100 | CNC(=O)COc1cc2cc(Nc3nc(N4CCC(c5cn(CCOCCOCCOc6ccc7c(c6)C(=O)N(C6CCC(=O)NC6=O)C7=O)nn5)CC4)ncc3Cl)ccc2n(C)c1=O (stereo not shown) [compound 120, 2-((6-((5-chloro-2-(4-(1-(2-(2-(2-((2-(2,6-dioxopiperidin-3-yl)-1,3-dioxoisoindolin-5-yl)oxy)ethoxy)ethoxy)ethyl)-1H-1,2,3-triazol-4-yl)piperidin-1-yl)pyrimidin-4-yl)amino)-1-methyl-2-oxo-1,2-dihydroquinolin-3-yl)oxy)-N-methylacetamide]

Second part, the compound before the results:

Row | SMILES | DC50 [nM]
8 | CNC(=O)COc1cc2cc(Nc3nc(N4CCN(CCCN5CCN(c6ccc7c(c6)CN(C6CCC(=O)NC6=O)C7=O)CC5)CC4)ncc3Cl)ccc2n(C)c1=O (stereo not shown) [compound 103, 2-((6-((5-chloro-2-(4-(3-(4-(2-(2,6-dioxopiperidin-3-yl)-1-oxoisoindolin-5-yl)piperazin-1-yl)propyl)piperazin-1-yl)pyrimidin-4-yl)amino)-1-methyl-2-oxo-1,2-dihydroquinolin-3-yl)oxy)-N-methylacetamide] | 10 to 50
9 | CN1C(=O)CCc2cc(Nc3cc(N4CCC(OCCOCCOCCOCCOCCOc5ccc6c(c5)CN(C5CCC(=O)NC5=O)C6=O)CC4)c([N+](=O)[O-])cc3Cl)ccc21 (stereo not shown) [compound 105, 3-(5-((14-((1-(4-chloro-5-((1-methyl-2-oxo-1,2,3,4-tetrahydroquinolin-6-yl)amino)-2-nitrophenyl)piperidin-4-yl)oxy)-3,6,9,12-tetraoxatetradecyl)oxy)-1-oxoisoindolin-2-yl)piperidine-2,6-dione] | > 100
10 | CNC(=O)COc1cc2cc(Nc3nc(N4CCC(c5cn(CCOc6ccc7c(c6)C(=O)N(C6CCC(=O)NC6=O)C7=O)nn5)CC4)ncc3Cl)ccc2n(C)c1=O (stereo not shown) [compound 106, 2-((6-((5-chloro-2-(4-(1-(2-((2-(2,6-dioxopiperidin-3-yl)-1,3-dioxoisoindolin-5-yl)oxy)ethyl)-1H-1,2,3-triazol-4-yl)piperidin-1-yl)pyrimidin-4-yl)amino)-1-methyl-2-oxo-1,2-dihydroquinolin-3-yl)oxy)-N-methylacetamide] | 10 to 50
11 | CNC(=O)COc1cc2cc(Nc3nc(N4CCC(OCCOCCOCCOCCOc5cccc(-c6ccc7c(c6)CN(C6CCC(=O)NC6=O)C7=O)c5)CC4)ncc3Cl)ccc2n(C)c1=O (stereo not shown) [compound 109, 2-((6-((5-chloro-2-(4-(2-(2-(2-(2-(3-(2-(2,6-dioxopiperidin-3-yl)-1-oxoisoindolin-5-yl)phenoxy)ethoxy)ethoxy)ethoxy)ethoxy)piperidin-1-yl)pyrimidin-4-yl)amino)-1-methyl-2-oxo-1,2-dihydroquinolin-3-yl)oxy)-N-methylacetamide] | > 100
12 | CNC(=O)COc1cc2cc(Nc3nc(N4CCC(OCCOCCOCCOc5ccccc5OCCOc5ccc6c(c5)CN(C5CCC(=O)NC5=O)C6=O)CC4)ncc3Cl)ccc2n(C)c1=O (stereo not shown) [compound 110, 2-((6-((5-chloro-2-(4-(2-(2-(2-(2-(2-((2-(2,6-dioxopiperidin-3-yl)-1-oxoisoindolin-5-yl)oxy)ethoxy)phenoxy)ethoxy)ethoxy)ethoxy)piperidin-1-yl)pyrimidin-4-yl)amino)-1-methyl-2-oxo-1,2-dihydroquinolin-3-yl)oxy)-N-methylacetamide] | > 100
13 | CNC(=O)COc1cc2cc(Nc3nc(N4CCC(OCCOCCOCCCOc5ccccc5CCOc5ccc6c(c5)CN(C5CCC(=O)NC5=O)C6=O)CC4)ncc3Cl)ccc2n(C)c1=O (stereo not shown) [compound 111, 2-((6-((5-chloro-2-(4-(2-(2-(3-(2-(2-((2-(2,6-dioxopiperidin-3-yl)-1-oxoisoindolin-5-yl)oxy)ethyl)phenoxy)propoxy)ethoxy)ethoxy)piperidin-1-yl)pyrimidin-4-yl)amino)-1-methyl-2-oxo-1,2-dihydroquinolin-3-yl)oxy)-N-methylacetamide] | > 100
14 | CNC(=O)COc1cc2cc(Nc3nc(N4CCC(Cc5cn(CCOc6ccc7c(c6)C(=O)N(C6CCC(=O)NC6=O)C7=O)nn5)CC4)ncc3Cl)ccc2n(C)c1=O (stereo not shown) [compound 112, 2-((6-((5-chloro-2-(4-((1-(2-((2-(2,6-dioxopiperidin-3-yl)-1,3-dioxoisoindolin-5-yl)oxy)ethyl)-1H-1,2,3-triazol-4-yl)methyl)piperidin-1-yl)pyrimidin-4-yl)amino)-1-methyl-2-oxo-1,2-dihydroquinolin-3-yl)oxy)-N-methylacetamide] | 10 to 50
15 | CNC(=O)COc1cc2cc(Nc3nc(N4CCC(Cc5cn(CCOCCOc6ccc7c(c6)C(=O)N(C6CCC(=O)NC6=O)C7=O)nn5)CC4)ncc3Cl)ccc2n(C)c1=O (stereo not shown) [compound 113, 2-((6-((5-chloro-2-(4-((1-(2-(2-((2-(2,6-dioxopiperidin-3-yl)-1,3-dioxoisoindolin-5-yl)oxy)ethoxy)ethyl)-1H-1,2,3-triazol-4-yl)methyl)piperidin-1-yl)pyrimidin-4-yl)amino)-1-methyl-2-oxo-1,2-dihydroquinolin-3-yl)oxy)-N-methylacetamide] | 50 to 100
16 | CNC(=O)COc1cc2cc(Nc3nc(N4CCC(OCc5ccc(OCCOCCOCCOc6ccc7c(c6)CN(C6CCC(=O)NC6=O)C7=O)cc5)CC4)ncc3Cl)ccc2n(C)c1=O (stereo not shown) [compound 118, 2-((6-((5-chloro-2-(4-((4-(2-(2-(2-((2-(2,6-dioxopiperidin-3-yl)-1-oxoisoindolin-5-yl)oxy)ethoxy)ethoxy)ethoxy)benzyl)oxy)piperidin-1-yl)pyrimidin-4-yl)amino)-1-methyl-2-oxo-1,2-dihydroquinolin-3-yl)oxy)-N-methylacetamide] | 50 to 100
